Source: PubChem BioAssay (NCI)
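Method: 48-hour compound exposure of cells in 96-well plates, five concentrations, linear interpolation of endpoints. The concentration for full growth arrest is given as TGI.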

Experiments:
Experiment in all cases: NCI tumour cell line growth inhibition, 48 h
786-0 renal = system: 786-0 renal
A498 renal = system: A498 renal
A549 NSCLC = system: A549 NSCLC
ACHN renal = system: ACHN renal
BT-549 breast = system: BT-549 breast
CAKI-1 renal = system: CAKI-1 renal
CCRF-CEM leukemia = system: CCRF-CEM leukemia
COLO 205 colon = system: COLO 205 colon
DU-145 prostate = system: DU-145 prostate
EKVX NSCLC = system: EKVX NSCLC
HCC-2998 colon = system: HCC-2998 colon
HCT-116 colon = system: HCT-116 colon
HCT-15 colon = system: HCT-15 colon
HL-60(TB) leukemia = system: HL-60(TB) leukemia
HOP-62 NSCLC = system: HOP-62 NSCLC
HOP-92 NSCLC = system: HOP-92 NSCLC
HS 578T breast = system: HS 578T breast
HT29 colon = system: HT29 colon
IGROV1 ovarian = system: IGROV1 ovarian
K-562 leukemia = system: K-562 leukemia
LOX IMVI melanoma = system: LOX IMVI melanoma
M14 melanoma = system: M14 melanoma
MALME-3M melanoma = system: MALME-3M melanoma
MDA-MB-231 breast = system: MDA-MB-231 breast
MDA-MB-435 = system: MDA-MB-435
MDA-N = system: MDA-N
MOLT-4 leukemia = system: MOLT-4 leukemia
NCI-H226 lung = system: NCI-H226 lung
NCI-H23 lung = system: NCI-H23 lung
NCI-H460 lung = system: NCI-H460 lung
NCI-H522 lung = system: NCI-H522 lung
NCI/ADR-RES ovarian = system: NCI/ADR-RES ovarian
OVCAR-3 ovarian = system: OVCAR-3 ovarian
OVCAR-4 ovarian = system: OVCAR-4 ovarian
OVCAR-5 ovarian = system: OVCAR-5 ovarian
OVCAR-8 ovarian = system: OVCAR-8 ovarian
PC-3 prostate = system: PC-3 prostate
RPMI-8226 leukemia = system: RPMI-8226 leukemia
RXF 393 renal = system: RXF 393 renal
SF-268 CNS = system: SF-268 CNS
SF-295 CNS = system: SF-295 CNS
SF-539 CNS = system: SF-539 CNS
SK-MEL-2 melanoma = system: SK-MEL-2 melanoma
SK-MEL-28 melanoma = system: SK-MEL-28 melanoma
SK-MEL-5 melanoma = system: SK-MEL-5 melanoma
SK-OV-3 ovarian = system: SK-OV-3 ovarian
SN12C renal = system: SN12C renal
SNB-19 CNS = system: SNB-19 CNS
SR leukemia = system: SR leukemia
SW-620 colon = system: SW-620 colon
T-47D breast = system: T-47D breast
TK-10 renal = system: TK-10 renal
U251 CNS = system: U251 CNS
UACC-257 melanoma = system: UACC-257 melanoma
UACC-62 melanoma = system: UACC-62 melanoma
MCF7 breast = system: MCF7 breast
SNB-75 CNS = system: SNB-75 CNS
UO-31 renal = system: UO-31 renal
KM12 colon = system: KM12 colon

Measured: TGI

COc1cc2c(cc1OC)C(=O)N(c1ccc(O)cc1)C2
not listed: MCF7 breast | SNB-75 CNS | UO-31 renal | KM12 colon
> 100 µM: all other assays above

COC(=O)Cc1c([C@@H]2Nc3ccccc3[C@H]2CC(=O)OC)[nH]c2ccccc12
84.8 µM: MDA-MB-435
75 µM: BT-549 breast
21 µM: SK-MEL-5 melanoma
65.5 µM: NCI-H460 lung
77.7 µM: K-562 leukemia
71.4 µM: SR leukemia
42.8 µM: OVCAR-3 ovarian
49.4 µM: RPMI-8226 leukemia
68.9 µM: MOLT-4 leukemia
88.9 µM: MDA-MB-231 breast
67.5 µM: SF-539 CNS
34.3 µM: UACC-62 melanoma
34.8 µM: COLO 205 colon | SK-MEL-2 melanoma
81.6 µM: UACC-257 melanoma | UO-31 renal
not listed: HL-60(TB) leukemia | M14 melanoma | MALME-3M melanoma | NCI-H522 lung | T-47D breast | KM12 colon
> 100 µM: all other assays above

C[N+]1(C)C2Cc3ccccc3C1Cc1ccccc12
not listed: CAKI-1 renal | K-562 leukemia | SR leukemia | SNB-75 CNS
> 100 µM: all other assays above

CC(=O)N[C@@H](Cc1ccc(O)cn1)C(=O)NCc1cccc(F)c1
not listed: MDA-MB-231 breast | MOLT-4 leukemia | OVCAR-8 ovarian | SNB-75 CNS
> 100 µM: all other assays above
